# In PubChem BioAssay AID330 (DTP/NCI, 2004):
# Several values for one entry are separate records, joined by “and”; a condition that tells them apart may be missing. Equal entries are not always repeated. Toxic doses and inconclusive results are not listed.
# Test system: P388 leukemia ip, CD2F1 mice, survival T/C
# Experiment: NCI In Vivo Anticancer Drug Screen. Data for tumor model P388 Leukemia (intraperitoneal) in CD2F1 (CDF1) mice
# Conditions: endpoint: median survival time, higher = longer survival
# In short: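 Mice carrying the transplanted tumor received test compound or vehicle. Survival was recorded in each group, and the value is the treated-group measurement divided by that of the vehicle-treated control group.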
# [1] = dose: 50.0 mg/kg/injection, schedule: Q01DX009 (ip), vehicle: saline with Tween-80
# [2] = dose: 100.0 mg/kg/injection, schedule: Q01DX009 (ip), vehicle: saline with Tween-80
# [3] = dose: 200.0 mg/kg/injection, schedule: Q01DX009 (ip), vehicle: saline with Tween-80
# [4] = dose: 25.0 mg/kg/injection, schedule: Q01DX009 (ip), vehicle: saline with Tween-80
# [5] = dose: 12.5 mg/kg/injection, schedule: Q01DX009 (ip), vehicle: saline with Tween-80
smiles,measurement,setting,value
[O]=[Ge]=[O],T/C,"dose: 50.0 mg/kg/injection, schedule: Q01DX009 (ip), vehicle: saline",111 % of control
same,T/C,"dose: 100.0 mg/kg/injection, schedule: Q01DX009 (ip), vehicle: saline",104 % of control
same,T/C,"dose: 200.0 mg/kg/injection, schedule: Q01DX009 (ip), vehicle: saline",111 % of control
COc1cccc2c1C(=O)c1c(O)c3c(c(O)c1C2=O)CC(O)(C(C)=O)CC3OC1CC(NC2CCCCC2)C(O)C(C)O1 (stereo not drawn),T/C,"dose: 6.25 mg/kg/injection, schedule: Q04DX003 (ip), vehicle: distilled water + Tween-80",100 % of control
same,T/C,"dose: 12.5 mg/kg/injection, schedule: Q04DX003 (ip), vehicle: distilled water + Tween-80",104 % of control
same,T/C,"dose: 25.0 mg/kg/injection, schedule: Q04DX003 (ip), vehicle: distilled water + Tween-80",102 % of control
same,T/C,"dose: 50.0 mg/kg/injection, schedule: Q04DX003 (ip), vehicle: distilled water + Tween-80",102 % of control
same,T/C,"dose: 100.0 mg/kg/injection, schedule: Q04DX003 (ip), vehicle: distilled water + Tween-80",104 % of control
same,T/C,"dose: 200.0 mg/kg/injection, schedule: Q04DX003 (ip), vehicle: distilled water + Tween-80",108 % of control
C[C@H](N)[C@@H](O)/C=C/c1ccccc1,T/C,"dose: 10.0 mg/kg/injection, schedule: Q01DX005 (ip), vehicle: saline",98 % of control
same,T/C,"dose: 20.0 mg/kg/injection, schedule: Q01DX005 (ip), vehicle: saline",100 % of control
same,T/C,"dose: 40.0 mg/kg/injection, schedule: Q01DX005 (ip), vehicle: saline",100 % of control
Cc1cccc(Nc2nnc3nc(-c4ccccc4)c(-c4ccccc4)nn23)c1,T/C,"dose: 25.0 mg/kg/injection, schedule: Q01DX001 (ip), vehicle: saline with Tween-80",94 % of control
same,T/C,"dose: 50.0 mg/kg/injection, schedule: Q01DX001 (ip), vehicle: saline with Tween-80",100 % of control
same,T/C,"dose: 100.0 mg/kg/injection, schedule: Q01DX001 (ip), vehicle: saline with Tween-80",91 % of control and 95 % of control
FC(F)(F)c1cc(NC(=S)SCc2ccc3c(c2)OCO3)ccc1Cl,T/C,"dose: 50.0 mg/kg/injection, schedule: Q01DX009 (ip), vehicle: suspension in saline",100 % of control
same,T/C,"dose: 100.0 mg/kg/injection, schedule: Q01DX009 (ip), vehicle: suspension in saline",100 % of control
same,T/C,"dose: 200.0 mg/kg/injection, schedule: Q01DX009 (ip), vehicle: suspension in saline",100 % of control
CCOC(=O)N1Cc2cc3ncccc3nc2C1,T/C,"dose: 25.0 mg/kg/injection, schedule: Q01DX005 (ip), vehicle: Klucel (hydroxypropylcellulose) (HPC)",111 % of control
same,T/C,"dose: 50.0 mg/kg/injection, schedule: Q01DX005 (ip), vehicle: Klucel (hydroxypropylcellulose) (HPC)",100 % of control
Cc1[nH]nc2c1NC(=O)OC2C (stereo not drawn),T/C,"dose: 50.0 mg/kg/injection, schedule: Q01DX005 (ip), vehicle: saline with Tween-80",108 % of control
same,T/C,"dose: 100.0 mg/kg/injection, schedule: Q01DX005 (ip), vehicle: saline with Tween-80",99 % of control
same,T/C,"dose: 200.0 mg/kg/injection, schedule: Q01DX005 (ip), vehicle: saline with Tween-80",101 % of control
O=C1NC(=O)C2C(=O)NC(=O)C1C21CCc2ccccc21 (stereo not drawn),T/C,"dose: 60.0 mg/kg/injection, schedule: Q01DX005 (ip), vehicle: saline with Tween-80",97 % of control
same,T/C,"dose: 120.0 mg/kg/injection, schedule: Q01DX005 (ip), vehicle: saline with Tween-80",86 % of control
C=C1C(=O)C23CC1CCC2C12COC(OC(=O)CCCCCCCCCCCCC)C1C(C)(C)C(O)CC2OC3=O (stereo not drawn),T/C,"dose: 7.5 mg/kg/injection, schedule: Q01DX009 (ip), vehicle: saline with Tween-80",109 % of control
same,T/C,"dose: 15.0 mg/kg/injection, schedule: Q01DX009 (ip), vehicle: saline with Tween-80",109 % of control
same,T/C,"dose: 30.0 mg/kg/injection, schedule: Q01DX009 (ip), vehicle: saline with Tween-80",100 % of control
same,T/C,"dose: 60.0 mg/kg/injection, schedule: Q01DX009 (ip), vehicle: saline with Tween-80",111 % of control
ClCC1CSC2(CCCCC2)O1 (stereo not drawn),T/C,[1],104 % of control and 115 % of control
same,T/C,[2],100 % of control and 119 % of control
same,T/C,[3],97 % of control
O=C(Nc1ccc(C2=NCCCN2)cc1)c1ccc(C(=O)Nc2ccc(C3=NCCCN3)cc2)cc1,T/C,"dose: 1.25 mg/kg/injection, schedule: Q04DX003 (ip), vehicle: saline with Tween-80",100 % of control
same,T/C,"dose: 2.5 mg/kg/injection, schedule: Q04DX003 (ip), vehicle: saline with Tween-80",113 % of control
same,T/C,"dose: 5.0 mg/kg/injection, schedule: Q01DX009 (ip), vehicle: saline",300 % of control
same,T/C,"dose: 10.8 mg/kg/injection, schedule: Q04DX003 (ip), vehicle: Klucel (hydroxypropylcellulose) (HPC)",151 % of control
same,T/C,"dose: 12.0 mg/kg/injection, schedule: Q04DX003 (ip), vehicle: Klucel (hydroxypropylcellulose) (HPC)",151 % of control
same,T/C,"dose: 18.0 mg/kg/injection, schedule: Q04DX003 (ip), vehicle: Klucel (hydroxypropylcellulose) (HPC)",165 % of control and 186 % of control and 198 % of control
same,T/C,"dose: 20.0 mg/kg/injection, schedule: Q01DX009 (ip), vehicle: saline",100 % of control
same,T/C,"dose: 20.0 mg/kg/injection, schedule: Q04DX003 (ip), vehicle: Klucel (hydroxypropylcellulose) (HPC)",185 % of control
same,T/C,"dose: 20.0 mg/kg/injection, schedule: Q04DX003 (ip), vehicle: saline with Tween-80",204 % of control
same,T/C,"dose: 30.0 mg/kg/injection, schedule: Q04DX003 (ip), vehicle: Klucel (hydroxypropylcellulose) (HPC)",201 % of control
same,T/C,"dose: 33.3 mg/kg/injection, schedule: Q04DX003 (ip), vehicle: Klucel (hydroxypropylcellulose) (HPC)",250 % of control
same,T/C,"dose: 50.0 mg/kg/injection, schedule: Q04DX003 (ip), vehicle: Klucel (hydroxypropylcellulose) (HPC)",91 % of control
CCCCOC(=O)C1C(C(=O)OCCCC)C2(Cl)C(Cl)=C(Cl)C1(Cl)C2(Cl)Cl (stereo not drawn),T/C,"dose: 100.0 mg/kg/injection, schedule: Q01DX009 (ip), vehicle: Klucel (hydroxypropylcellulose) (HPC)",97 % of control
same,T/C,"dose: 200.0 mg/kg/injection, schedule: Q01DX009 (ip), vehicle: Klucel (hydroxypropylcellulose) (HPC)",104 % of control
same,T/C,"dose: 400.0 mg/kg/injection, schedule: Q01DX009 (ip), vehicle: Klucel (hydroxypropylcellulose) (HPC)",111 % of control
Nc1ccc2c(c1)CC1CC(=O)NN=C21 (stereo not drawn),T/C,"dose: 60.0 mg/kg/injection, schedule: Q01DX005 (ip), vehicle: saline",98 % of control
same,T/C,"dose: 120.0 mg/kg/injection, schedule: Q01DX005 (ip), vehicle: saline",92 % of control
same,T/C,"dose: 240.0 mg/kg/injection, schedule: Q01DX005 (ip), vehicle: saline",98 % of control
C/C(=N\O)C(C)(O)C(C)(C)C (stereo not drawn),T/C,[4],103 % of control
same,T/C,[1],86 % of control
same,T/C,[2],93 % of control
Nc1nc(N)c2nc3c(nc2n1)C(=O)N(c1ccc(C(=O)O)cc1)C3,T/C,"dose: 6.25 mg/kg/injection, schedule: Q01DX009 (ip), vehicle: saline with Tween-80",106 % of control
same,T/C,[5],115 % of control
same,T/C,[4],117 % of control
same,T/C,[1],108 % of control
Cc1cc(Cl)ccc1O/C(=C/C(=O)O)C(=O)O,T/C,"dose: 60.0 mg/kg/injection, schedule: Q01DX005 (ip), vehicle: Klucel (hydroxypropylcellulose) (HPC)",100 % of control and 98 % of control
same,T/C,"dose: 120.0 mg/kg/injection, schedule: Q01DX005 (ip), vehicle: Klucel (hydroxypropylcellulose) (HPC)",100 % of control and 95 % of control
same,T/C,"dose: 240.0 mg/kg/injection, schedule: Q01DX005 (ip), vehicle: Klucel (hydroxypropylcellulose) (HPC)",101 % of control and 87 % of control
COc1cc2c(c(OC)c1OC)-c1cc3c(cc1[C@@H](OC(C)=O)[C@@H]1COC(=O)[C@H]1C2)OCO3,T/C,"dose: 1.25 mg/kg/injection, schedule: Q01DX009 (ip), vehicle: Klucel (hydroxypropylcellulose) (HPC)",100 % of control
same,T/C,"dose: 2.5 mg/kg/injection, schedule: Q01DX009 (ip), vehicle: Klucel (hydroxypropylcellulose) (HPC)",111 % of control
same,T/C,"dose: 5.0 mg/kg/injection, schedule: Q01DX009 (ip), vehicle: Klucel (hydroxypropylcellulose) (HPC)",95 % of control
same,T/C,"dose: 10.0 mg/kg/injection, schedule: Q01DX009 (ip), vehicle: Klucel (hydroxypropylcellulose) (HPC)",97 % of control
[Cl][Pt][Cl].[NH-]C(CO)C(=O)O (stereo not drawn),T/C,"dose: 6.25 mg/kg/injection, schedule: Q01DX005 (ip), vehicle: water",119 % of control
same,T/C,"dose: 12.5 mg/kg/injection, schedule: Q01DX005 (ip), vehicle: water",113 % of control
same,T/C,"dose: 25.0 mg/kg/injection, schedule: Q01DX005 (ip), vehicle: water",122 % of control
same,T/C,"dose: 50.0 mg/kg/injection, schedule: Q01DX005 (ip), vehicle: water",153 % of control
CC(=O)c1ccc(-c2ccc(C(C)=O)cc2)cc1,T/C,[1],96 % of control
same,T/C,[2],100 % of control
same,T/C,[3],87 % of control
same,T/C,"dose: 400.0 mg/kg/injection, schedule: Q01DX009 (ip), vehicle: saline with Tween-80",87 % of control
CC(=O)N(C)c1ccc(N=Nc2ccc3ncccc3c2)cc1,T/C,"dose: 12.5 mg/kg/injection, schedule: Q01DX005 (ip), vehicle: saline with Tween-80",102 % of control
same,T/C,"dose: 25.0 mg/kg/injection, schedule: Q01DX005 (ip), vehicle: saline with Tween-80",100 % of control
COc1cccc(/C=N/NC(=O)C2CCN(C(=S)NC3CC4C=CC3C4)CC2)c1O (stereo not drawn),T/C,[5],101 % of control
same,T/C,[1],99 % of control and 97 % of control
same,T/C,[2],103 % of control
same,T/C,[3],103 % of control
